Reference: patent US7880007B2, “Bicyclic substituted phenyl piperidine modulators of muscarinic receptors” (Vertex Pharmaceuticals Incorporated, priority 2004, dated 2011)

Experiments:
Assay type in all cases: cell-based
M1 muscarinic receptor = target: T1, M1 muscarinic receptor (Homo sapiens, UniProt P11229); test: Functional mobilization of intracellular calcium (FLIPR), M1-CHO cells; conditions: for M1 Activity: M1-CHO cells, calcium mobilization (FLIPR)
T1 construct: expressed in transfected cells; host or cells: CHO (M1-CHO)
T1 sequence (P11229 1-460): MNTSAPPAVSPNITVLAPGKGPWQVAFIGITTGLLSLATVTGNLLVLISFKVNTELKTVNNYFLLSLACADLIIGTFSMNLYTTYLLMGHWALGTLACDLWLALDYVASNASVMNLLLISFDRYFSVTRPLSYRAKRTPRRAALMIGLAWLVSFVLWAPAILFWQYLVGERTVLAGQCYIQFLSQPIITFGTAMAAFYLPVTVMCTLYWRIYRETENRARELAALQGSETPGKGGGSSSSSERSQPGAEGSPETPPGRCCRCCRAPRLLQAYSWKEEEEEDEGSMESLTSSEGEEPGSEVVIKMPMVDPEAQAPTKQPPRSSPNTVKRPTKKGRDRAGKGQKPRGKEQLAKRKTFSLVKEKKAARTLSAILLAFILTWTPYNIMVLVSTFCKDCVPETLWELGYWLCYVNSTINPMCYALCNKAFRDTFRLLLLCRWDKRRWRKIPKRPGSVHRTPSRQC
Method in brief: (§1)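 Calcium mobilisation read by FLIPR over 60 s (ex 488/em 540 nm) in recombinant muscarinic CHO lines loaded with calcium dye plus 1 mM probenecid. Compounds tested as agonists alone, or as inhibitors against EC80 carbachol after 15 min pre-incubation or co-addition; 0.5% DMSO; efficacy scaled to carbachol maximal response.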

M3 muscarinic receptor = target: T2, M3 muscarinic receptor (Homo sapiens, UniProt P20309); test: Functional mobilization of intracellular calcium (FLIPR), M3-CHO cells; conditions: for M3 Activity: M3-CHO cells, calcium mobilization (FLIPR)
T2 construct: expressed in transfected cells; host or cells: CHO (M3-CHO)
Method in brief: as §1

M4 muscarinic receptor = target: T3, M4 muscarinic receptor (Homo sapiens, UniProt P08173); test: Functional mobilization of intracellular calcium (FLIPR), M4-CHO cells; conditions: for M4 Activity: M4-CHO cells, calcium mobilization (FLIPR)
T3 construct: expressed in transfected cells; host or cells: CHO (M4-CHO)
T3 sequence (P08173 1-479): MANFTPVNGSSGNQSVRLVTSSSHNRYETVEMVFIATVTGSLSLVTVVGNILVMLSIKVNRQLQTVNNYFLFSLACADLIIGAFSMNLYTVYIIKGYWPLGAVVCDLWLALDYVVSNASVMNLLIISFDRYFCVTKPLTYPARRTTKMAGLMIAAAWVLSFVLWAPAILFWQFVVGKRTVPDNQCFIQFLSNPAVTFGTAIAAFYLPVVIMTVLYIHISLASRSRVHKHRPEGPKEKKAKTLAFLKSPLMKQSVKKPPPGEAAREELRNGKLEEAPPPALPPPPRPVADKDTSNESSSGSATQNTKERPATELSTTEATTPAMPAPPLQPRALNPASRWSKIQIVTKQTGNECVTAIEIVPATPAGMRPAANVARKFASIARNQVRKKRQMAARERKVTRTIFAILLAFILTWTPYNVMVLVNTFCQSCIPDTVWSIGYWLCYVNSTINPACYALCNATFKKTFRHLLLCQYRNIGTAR
Method in brief: as §1

M2 muscarinic receptor = target: T4, M2 muscarinic receptor (Homo sapiens, UniProt P08172); test: Functional mobilization of intracellular calcium (FLIPR), M2-CHO cells; conditions: for M2 Activity: M2-CHO cells, calcium mobilization (FLIPR)
T4 construct: expressed in transfected cells; host or cells: CHO (M2-CHO)
T4 sequence (P08172 1-466): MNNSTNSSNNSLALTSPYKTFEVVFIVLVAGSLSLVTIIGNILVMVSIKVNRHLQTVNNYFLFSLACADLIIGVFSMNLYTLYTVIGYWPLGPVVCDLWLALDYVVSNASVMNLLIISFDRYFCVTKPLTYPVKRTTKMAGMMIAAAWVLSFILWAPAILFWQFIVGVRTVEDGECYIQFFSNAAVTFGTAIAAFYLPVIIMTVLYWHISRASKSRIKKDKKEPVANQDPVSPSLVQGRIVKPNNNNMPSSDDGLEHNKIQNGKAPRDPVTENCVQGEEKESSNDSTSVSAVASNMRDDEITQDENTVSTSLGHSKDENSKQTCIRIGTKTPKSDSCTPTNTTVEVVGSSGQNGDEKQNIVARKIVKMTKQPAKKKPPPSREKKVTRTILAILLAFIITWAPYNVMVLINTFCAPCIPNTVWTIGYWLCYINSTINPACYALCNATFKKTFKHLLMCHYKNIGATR
Method in brief: as §1

[1] = 100% efficacy = maximum response obtained with the Carbachol control

T2 sequence (P20309 whole entry): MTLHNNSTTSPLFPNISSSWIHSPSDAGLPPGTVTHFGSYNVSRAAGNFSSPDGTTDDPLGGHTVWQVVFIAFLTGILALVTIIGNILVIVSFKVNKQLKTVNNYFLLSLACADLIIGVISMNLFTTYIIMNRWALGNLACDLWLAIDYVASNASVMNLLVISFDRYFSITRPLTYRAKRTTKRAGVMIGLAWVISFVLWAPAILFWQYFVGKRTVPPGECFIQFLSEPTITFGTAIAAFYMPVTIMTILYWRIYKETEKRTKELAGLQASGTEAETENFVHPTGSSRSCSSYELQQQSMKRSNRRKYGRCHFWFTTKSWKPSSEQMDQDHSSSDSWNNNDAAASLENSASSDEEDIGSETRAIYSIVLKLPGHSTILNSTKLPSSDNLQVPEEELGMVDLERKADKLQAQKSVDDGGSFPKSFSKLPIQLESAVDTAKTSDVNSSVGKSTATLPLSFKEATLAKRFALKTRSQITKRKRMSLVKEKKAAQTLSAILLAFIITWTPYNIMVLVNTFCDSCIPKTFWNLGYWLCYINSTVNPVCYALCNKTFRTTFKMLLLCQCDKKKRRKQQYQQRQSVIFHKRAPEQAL

SMILES | Emax (M1 muscarinic receptor; [1]) | Emax (M3 muscarinic receptor; [1]) | Emax (M4 muscarinic receptor; [1]) | Emax (M2 muscarinic receptor; [1]) | M1 Activity (M1 muscarinic receptor) | M3 Activity (M3 muscarinic receptor) | M4 Activity (M4 muscarinic receptor) | M2 Activity (M2 muscarinic receptor) | M1 Efficacy (M1 muscarinic receptor; [1]) | M3 Efficacy (M3 muscarinic receptor; [1]) | M4 Efficacy (M4 muscarinic receptor; [1]) | M2 Efficacy (M2 muscarinic receptor; [1])
COC(=O)c1ccc(-c2ccccc2C2CCN([C@H]3C[C@H]4CC[C@H]3C4)CC2)cc1 [Compound 251] | 25 to 100% | < 25% | 25 to 100% | 25 to 100% | + (activity was measured to be greater than 5.0 μM) | + (activity was measured to be greater than 5.0 μM) | +++ (activity was measured to be less than 1.0 μM) | + (activity was measured to be greater than 5.0 μM) | – | – | – | –
COc1ccc(-c2ccccc2F)cc1C1CCN([C@H]2C[C@H]3CC[C@H]2C3)CC1 [Compound 216] | < 25% | < 25% | 25 to 100% | < 25% | + (activity was measured to be greater than 5.0 μM) | + (activity was measured to be greater than 5.0 μM) | + (activity was measured to be greater than 5.0 μM) | + (activity was measured to be greater than 5.0 μM) | – | – | – | –
CCCON=C1CCC(N2CCC(c3cc(Cl)ccc3OC)CC2)CC1 (stereo not shown) [Compound 362] | – | – | – | – | +++ (activity was measured to be less than 1.0 μM) | + (activity was measured to be greater than 5.0 μM) | +++ (activity was measured to be less than 1.0 μM) | ++ (activity was measured to be from 1.0 μM to 5.0 μM) | ++ (efficacy was calculated to be from 100% to 25%) | + (efficacy was calculated to be less than 25%) | ++ (efficacy was calculated to be from 100% to 25%) | ++ (efficacy was calculated to be from 100% to 25%)
COc1ccccc1C1CCN(C2CC(C)(C)CC(C)(C)C2)CC1 [Compound 138] | < 25% | < 25% | < 25% | < 25% | + (activity was measured to be greater than 5.0 μM) | + (activity was measured to be greater than 5.0 μM) | + (activity was measured to be greater than 5.0 μM) | + (activity was measured to be greater than 5.0 μM) | – | – | – | –
COc1ccccc1C1CCN(C2CCOCC2)CC1 [Compound 90] | 25 to 100% | < 25% | 25 to 100% | < 25% | + (activity was measured to be greater than 5.0 μM) | + (activity was measured to be greater than 5.0 μM) | +++ (activity was measured to be less than 1.0 μM) | + (activity was measured to be greater than 5.0 μM) | – | – | – | –
COc1ccc(-c2ccc(S(C)(=O)=O)cc2)cc1C1CCN([C@H]2C[C@H]3CC[C@H]2C3)CC1 [Compound 102] | < 25% | < 25% | 25 to 100% | < 25% | + (activity was measured to be greater than 5.0 μM) | + (activity was measured to be greater than 5.0 μM) | ++ (activity was measured to be from 1.0 μM to 5.0 μM) | + (activity was measured to be greater than 5.0 μM) | – | – | – | –
COc1ccc(F)cc1C1CCN(C2CC3CCC(C3)C2)CC1 (stereo not shown) [Compound 207] | 25 to 100% | < 25% | 25 to 100% | < 25% | +++ (activity was measured to be less than 1.0 μM) | + (activity was measured to be greater than 5.0 μM) | +++ (activity was measured to be less than 1.0 μM) | + (activity was measured to be greater than 5.0 μM) | – | – | – | –
CCOC(=O)N1CCC(N2CCC(c3cc(-c4ccc(S(C)(=O)=O)cc4)ccc3OC)CC2)CC1 [Compound 43] | > 100% | 25 to 100% | 25 to 100% | 25 to 100% | +++ (activity was measured to be less than 1.0 μM) | + (activity was measured to be greater than 5.0 μM) | +++ (activity was measured to be less than 1.0 μM) | +++ (activity was measured to be less than 1.0 μM) | – | – | – | –

The next lines start with results.

Emax (M1 muscarinic receptor; [1]) | Emax (M3 muscarinic receptor; [1]) | Emax (M4 muscarinic receptor; [1]) | Emax (M2 muscarinic receptor; [1]) | SMILES | M1 Activity (M1 muscarinic receptor) | M3 Activity (M3 muscarinic receptor) | M4 Activity (M4 muscarinic receptor) | M2 Activity (M2 muscarinic receptor) | M1 Efficacy (M1 muscarinic receptor; [1]) | M3 Efficacy (M3 muscarinic receptor; [1]) | M4 Efficacy (M4 muscarinic receptor; [1]) | M2 Efficacy (M2 muscarinic receptor; [1])
25 to 100% | < 25% | 25 to 100% | < 25% | CCOC(=O)N1CCC(CN2CCC(c3cc(-c4ccc(S(C)(=O)=O)cc4)ccc3OC)CC2)CC1 [Compound 146] | +++ (activity was measured to be less than 1.0 μM) | + (activity was measured to be greater than 5.0 μM) | +++ (activity was measured to be less than 1.0 μM) | + (activity was measured to be greater than 5.0 μM) | – | – | – | –
< 25% | < 25% | 25 to 100% | < 25% | O=C(COc1ccccc1C1CCN([C@H]2C[C@H]3CC[C@H]2C3)CC1)c1cccc(Cl)c1 [Compound 16] | + (activity was measured to be greater than 5.0 μM) | + (activity was measured to be greater than 5.0 μM) | ++ (activity was measured to be from 1.0 μM to 5.0 μM) | + (activity was measured to be greater than 5.0 μM) | – | – | – | –
25 to 100% | < 25% | 25 to 100% | < 25% | CCOC(=O)N1CCC(CN2CCC(c3cc(-c4ccc5c(c4)OCO5)ccc3OC)CC2)CC1 [Compound 297] | ++ (activity was measured to be from 1.0 μM to 5.0 μM) | + (activity was measured to be greater than 5.0 μM) | ++ (activity was measured to be from 1.0 μM to 5.0 μM) | + (activity was measured to be greater than 5.0 μM) | – | – | – | –
25 to 100% | < 25% | 25 to 100% | < 25% | COC(=O)CC1CCCC(N2CCC(c3ccccc3OC)CC2)C1 (stereo not shown) [Compound 238] | + (activity was measured to be greater than 5.0 μM) | + (activity was measured to be greater than 5.0 μM) | +++ (activity was measured to be less than 1.0 μM) | + (activity was measured to be greater than 5.0 μM) | – | – | – | –
< 25% | < 25% | < 25% | < 25% | COc1ccc(-c2ccc(CC#N)cc2)cc1C1CCN(C2CCOCC2)CC1 [Compound 263] | + (activity was measured to be greater than 5.0 μM) | + (activity was measured to be greater than 5.0 μM) | + (activity was measured to be greater than 5.0 μM) | + (activity was measured to be greater than 5.0 μM) | – | – | – | –
25 to 100% | < 25% | 25 to 100% | < 25% | COc1ccc(C(F)(F)F)cc1C1CCN(C2C[C@H]3CC[C@H]2C3)CC1 (stereo partly shown) [Compound 296] | ++ (activity was measured to be from 1.0 μM to 5.0 μM) | + (activity was measured to be greater than 5.0 μM) | ++ (activity was measured to be from 1.0 μM to 5.0 μM) | + (activity was measured to be greater than 5.0 μM) | – | – | – | –
